Experimental data from ChEMBL document CHEMBL1158947, “Novel Bishomoscalarane Sesterterpenes from the Sponge Phyllospongia foliascens” (J Nat Prod, 1991).
≈ marks a conversion by molar mass, not a printed value. Calls of active or inactive are those of the source. The calls are words filed in the database; no cut-off is given here.

Tested on: P388
Test: Cytotoxicity against mouse P388 cells
Assay type: functional, cell-based

## CC[C@@]1(C)CCC[C@]2(C)[C@H]3C[C@H](O)[C@]4(C)[C@H]5C=CC(=O)C5=CC[C@H]4[C@]3(C)CC[C@@H]12 [PHYLLOFENONE B]
  IC50: 5 µg/mL (≈ 12.6 µM)

## CC[C@@]1(C)CCC[C@]2(C)[C@H]3CC(=O)[C@]4(C)[C@H]5C(=O)O[C@@H](C)[C@@H]5[C@@H](O)C[C@H]4[C@]3(C)CC[C@@H]12
  Activity: inactive

## CC[C@@]1(C)CCC[C@]2(C)[C@H]3C[C@H](O)[C@]4(C)C5=C(CC[C@H]4[C@]3(C)CC[C@@H]12)[C@H](C)OC5=O
  Activity: inactive
